According to PMC5736936, “Xylopine Induces Oxidative Stress and Causes G2/M Phase Arrest, Triggering Caspase-Mediated Apoptosis by p53-Independent Pathway in HCT116 Cells” (Oxidative Medicine and Cellular Longevity, 2017):
pIC50: −log10 of the molar value.

What was measured:
[1] = system: MRC5 (human lung fibroblast); experiment: Cytotoxic activity, alamarBlue assay, 72 h (noncancer cells); type: cell-based; conditions: Homo sapiens
Source text: (§1) MCF7 (human breast carcinoma), HCT116 (human colon carcinoma), HepG2 (human hepatocellular carcinoma), SCC-9 (human oral squamous cell carcinoma), HSC-3 (human oral squamous cell carcinoma), HL-60 (human promyelocytic leukemia), K-562 (human chronic myelogenous leukemia), B16-F10 (murine melanoma), MRC-5 (human lung fibroblast), WT SV40 MEF (wild-type immortalized mouse embryonic fibroblast), and BAD KO SV40 MEF (BAD gene knockout immortalized mouse embryonic fibroblast) cell lines were obtained from the American Type Culture Collection (ATCC, Manassas, VA, USA). Cells were cultured in complete medium with appropriate supplements as recommended by ATCC. All cell lines were tested for mycoplasma using the Mycoplasma Stain Kit (Sigma-Aldrich) to validate the use of cells free from contamination. Primary cell culture of peripheral blood mononuclear cells (PBMC) was obtained by standard Ficoll density protocol. The Research Ethics Committee of the Oswaldo Cruz Foundation (Salvador, BA, Brazil) approved the experimental protocol (number 031019/2013). Cell viability was examined using trypan blue exclusion assay for all experiments.
(§2) Cell viability was quantified using the alamarBlue assay according to Ahmed et al.. Cells were inserted in 96-well plates for all experiments (7 × 10^4 cells/mL for adherent cells or 3 × 10^5 cells/mL for suspended cells in 100 μL of medium). After 24 h, xylopine was dissolved in dimethyl sulfoxide (DMSO) and added to each well and incubated for 72 h. […] Four (for cell lines) or 24 h (for PBMCs) before the end of incubation, 20 μL of a stock solution (0.312 mg/mL) of the alamarBlue (resazurin, Sigma-Aldrich Co., Saint Louis, MO, USA) was added to each well. Absorbance at 570 nm and 600 nm was measured using the SpectraMax 190 Microplate Reader (Molecular Devices, Sunnyvale, CA, USA), and the drug effect was quantified as the percentage of control absorbance.

[2] = system: PBMC (human peripheral blood mononuclear cells); experiment: as above; type: cell-based; conditions: Homo sapiens
Source text: as §1, §2

[3] = system: BAD KO SV40 MEF (BAD gene knockout immortalized mouse embryonic fibroblast); experiment: Cytotoxic activity in BAD gene knockout fibroblasts; type: cell-based; conditions: BAD KO SV40 MEF cell line
Source text: as §1, §2

[4] = system: WT SV40 MEF (wild-type immortalized mouse embryonic fibroblast); experiment: Cytotoxic activity in wild-type fibroblasts; type: cell-based; conditions: WT SV40 MEF cell line
Source text: as §1, §2

HCT116 cells [5] = experiment: Cell viability by trypan blue exclusion assay; type: cell-based, human; conditions: for reduction of the number of viable cells: HCT116, trypan blue
Source text: as §1

HCT116 cells [6] = experiment: Annexin V-FITC/PI staining assay (flow cytometry), with protection assays; type: cell-based, human
Description: For apoptosis detection, we used the FITC Annexin V Apoptosis Detection Kit I (BD Biosciences), and the analysis was performed according to the manufacturer's instructions. The cell fluorescence was determined by flow cytometry as described above. The protection assays using a caspase-3 inhibitor (Z-DEVD-FMK, BD Biosciences), a p53 inhibitor (cyclic pifithrin-α, Cayman Chemical, Ann Arbor, MI, USA), and an antioxidant N-acetyl-L-cysteine (NAC, Sigma-Aldrich Co.) were performed. In brief, the cells were pretreated for 2 h with 50 μM Z-DEVD-FMK and 10 μM cyclic pifithrin-α and for 1 h with 5 mM NAC, followed by incubation with 14 μM xylopine for 48 h. The cells were then trypsinized and the FITC Annexin V Apoptosis Detection assay was conducted as described above.

HCT116 cells [7] = experiment: Mitochondrial transmembrane potential (rhodamine 123); type: cell-based, human; conditions: HCT116, rhodamine 123, 24 h, p < 0.05
Description: Mitochondrial transmembrane potential was determined by the retention of the dye rhodamine 123 [9]. Cells were incubated with rhodamine 123 (5 μg/mL, Sigma-Aldrich Co.) at room temperature for 15 min in the dark and washed with saline. The cells were then incubated again in saline for 30 min in the dark and cell fluorescence was determined by flow cytometry as described above.

[8] = system: caspase-3 in HCT116 cells; experiment: Caspase-3 activation assay (colorimetric, Ac-DEVD-pNA); type: cell-based, human; conditions: HCT116, 48 h, p < 0.05
Description: A Caspase-3 Colorimetric Assay Kit (Sigma-Aldrich Co.) was used to investigate caspase-3 activation in xylopine-treated HCT116 cells based on the cleavage of Ac-DEVD-pNA and the analysis was performed according to the manufacturer's instructions.

HCT116 cells [9] = experiment: Nitric oxide production (DAF-FM diacetate); type: cell-based, human; conditions: 1 h
Description: Nitric oxide generation was detected with 4-amino-5-methylamino-2′-,7′-difluofluorescein diacetate (DAF-FM diacetate) (Molecular Probes, Eugene, OR, USA). The cells were labeled with 3 μM of DAF-FM diacetate for 60 minutes at 37°C. Following staining cells were washed with saline and incubated for an additional 15 minutes at 37°C to allow for complete deesterification of the intracellular diacatates. Then, the nitric oxide radical was measured by flow cytometry as described above.

HCT116 cells [10] = experiment: Cellular GSH level; type: cell-based, human; conditions: HCT116, 1 h
Description: A quantification kit for reduced glutathione (L-γ-glutamyl-L-cysteinyl-glycine, GSH, Sigma-Aldrich Co.) was used to investigate cellular GSH level in xylopine-treated HCT116 cells and the analysis was performed according to the manufacturer's instructions.

HCT116 cells [11] = experiment: Morphological analysis (May-Grünwald-Giemsa); type: cell-based, human; conditions: 24 and 48 h, DOX 1 μM, OXA 2.5 μM
Description: To evaluate alterations in morphology, cells were cultured under coverslip and stained with May-Grünwald-Giemsa. Morphological changes were examined by light microscopy using Image-Pro software.

[12] = system: human hepatocellular carcinoma HepG2 cells; set-up: method as in PMID 27399666; conditions: cited from earlier work

COc1ccc2c(c1)C[C@@H]1NCCc3cc4c(c-2c31)OCO4 [XYL, xylopine]
pIC50 [1]: 4.62
pIC50 [2]: 4.74
pIC50 [3]: 5.19
pIC50 [4]: 5.10
reduction of the number of viable cells (HCT116 cells [5]; 3.5 μM, 24 h): 50.2%
reduction of the number of viable cells (HCT116 cells [5]; 3.5 μM, 48 h): 79.9%
reduction of the number of viable cells (HCT116 cells [5]; 7 μM, 24 h): 64.4%
reduction of the number of viable cells (HCT116 cells [5]; 7 μM, 48 h): 84.6%
reduction of the number of viable cells (HCT116 cells [5]; 14 μM, 24 h): 71.8%
reduction of the number of viable cells (HCT116 cells [5]; 14 μM, 48 h): 89.4%
number of nonviable cells (HCT116 cells [5]; HCT116, trypan blue, 3.5, 7, 14 μM, 24 and 48 h): No significant increase
xylopine-induced apoptosis on cotreatment with caspase-3 inhibitor (Z-DEVD-FMK) (HCT116 cells [6]; HCT116, 50 μM Z-DEVD-FMK 2 h, then 14 μM xylopine 48 h): prevented
xylopine-induced increase of cell death by apoptosis on cotreatment with NAC (HCT116 cells [6]; HCT116, 5 mM NAC 1 h, then 14 μM xylopine 48 h): prevented
early and late apoptosis (HCT116 cells [6]; HCT116, annexin V/PI, 24 and 48 h, p < 0.05): significantly increased
necrotic cells (HCT116 cells [6]; HCT116, annexin V/PI, 48 h, p < 0.05): significant increase
mitochondrial depolarization (HCT116 cells [7]): induced mitochondrial depolarization
caspase-3 activation [8]: increased caspase-3 activation
nitric oxide level (HCT116 cells [9]): increases nitric oxide
GSH levels (HCT116 cells [10]): decreased
cell morphology (HCT116 cells [11]): reduction in the cell volume, chromatin condensation, and fragmentation of the nuclei
cell cycle arrest and apoptosis [12]: causes G2/M cell cycle arrest and apoptosis
